What was measured:
[1] = system: MOG-induced experimental autoimmune encephalomyelitis (EAE); test: First MOG EAE protocol (murine multiple sclerosis model); type: in vivo, C57BL/6 mice; conditions: first 28-day study; MGBG 30 mpk BID, fingolimod 3 mpk QD; throughout/duration of experiment
Excerpt: An experimental murine model of multiple sclerosis employing a myelin oligodendrocyte glycoprotein (MOG) peptide to induce experimental autoimmune encephalomyelitis (EAE) was employed to determine the efficacy of MGBG in preventing and treating that disease. Because of its many similarities to MS, EAE is commonly used to study pathogenesis of autoimmunity, CNS inflammation, demyelination, cell trafficking, and tolerance induction. EAE is characterized by paralysis (in some models the paralysis is remitting-relapsing), CNS inflammation and demyelination. EAE is mediated primarily by dendritic cells, myelin-specific T cells (e.g. Th1 and Th17), and M1 macrophages. B cells may also play a role in some models of EAE. Body weight also tracks disease progression. EAE is induced in C57BL/6 mice by immunization with MOG35-55 or MOG1-125 in CFA emulsion followed by administration of pertussis toxin (PTX) in PBS. The emulsion provides antigen which initiates expansion and differentiation of MOG-specific autoimmune T cells. PTX enhances EAE development by providing additional adjuvant and facilitating entrance of autoimmune T cells into the CNS.
Chronic EAE develops in C57BL/6 mice after immunization with an emulsion of MOG35-55/CFA or MOG1-125/CFA followed by injection of pertussis toxin. This model is used to test the potential of compounds to prevent or mitigate EAE disease. It can be run with the compound dosed from the time of immunization (prophylactic treatment), or with the aim of reversing the course of disease and facilitating recovery by dosing the compound from the time of EAE onset (therapeutic treatment). The model uses female C57BL/6 mice of age 10 to 14 weeks at the start of the study. Typically, EAE develops 8-18 days after immunization. EAE development is usually followed for 4 weeks (28 days) after immunization.
In prophylactic studies, treatment begins before disease onset, at the time of immunization and group assignment. Mice are assigned to treatment groups in a balanced manner to achieve groups with similar distributions of body weights. Prophylactic studies assess if treatment will affect the course of disease both before and after the first clinical signs of EAE. To compensate for the stress of treatment in prophylactic treatment studies and achieve the target disease severity, EAE may be induced with a higher dose of pertussis toxin than used in therapeutic studies. The dose of pertussis toxin is based on expected stress due to dosing (route, frequency, and formulation of vehicle).
Clinically, EAE progression is scored on a scale of 0 to 5, wherein each score represents the following clinical observations:
Inflammatory foci of approximately 20 cells were counted in each H&E stained section. When inflammatory infiltrates consisted of more than 20 cells, an estimate was made of how many foci of 20 cells were present.
The demyelination score represents an estimate of demyelinated area for each section as follows:
Unless otherwise noted, statistical analysis was performed as follows: disease incidence compared using chi-square test; mean day of EAE onset, change in body weight, and number of apoptotic cells compared using 2-tailed Student's t-test; median day of EAE onset compared using Wilcoxon's survival test; mean maximum score (MMS), end score, and demyelination scores (LFB and H&E) compared using Wilcoxon's non-parametric test.
Ten week old female C57BL/6 mice weighing 18-23 g (Taconic Farms) were divided into four groups: mock immunized (n=3) and three MOG-immunized groups receiving MGBG at 30 mpk BID (as the di-HCl monohydrate with a correction factor of 1.49), fingolimod (FTY720) at 3 mpk QD with a second mock vehicle dose, or 0.9% saline vehicle BID (n=12 each). […]

[2] = system: PGE2 production in carrageenan air pouch; test: Carrageenan air pouch model; type: in vivo, Lewis rats; conditions: rat pouch fluid, 3 or 24 hours post-carrageenan; naproxen 10 mg/kg, dexamethasone 1 mg/kg
Excerpt: Injection of air subcutaneously will induce the formation of a connective tissue cavity lined with cells that resemble and function like a synovial lining. This method is commonly known as the Air Pouch Model and is a useful animal model of inflammation that can be generated in a relatively short period of time. The air pouch may be created by subcutaneous (SQ) injection of a volume of sterile air in the dorsal neck region. The model may be used to test the efficacy and potency of compounds such as polyamine analogues and polyamine biosynthesis inhibitors such as MGBG in reducing various cellular and biochemical indicators of inflammation when administered as an oral (PO) gavage administration. Healthy Male Lewis rats (Charles River Laboratories, Wilmington, Mass.) weighing between 175-200 g were used. […] A correction factor of 1.49 was used to account for the dihydrochloride salt/monohydrate form of MGBG. […] Air pouches were formed on the dorsum of the rats during the last 4 days of MGBG or vehicle administration prior to carrageenan injection. Briefly, rats were anesthetized with isoflurane, during which dorsal hair was removed and 20 mL of sterile air was injected subcutaneously into the intrascapular region. Pouches were allowed to develop for the next 4 days, with re-inflation (to maintain pouch volume) of pouches 1 day prior to carrageenan injection. One hour prior to carrageenan injection, animals were given their last dose of drug (MGBG, vehicle, naproxen, or dexamethasone). A 1% suspension of carrageenan (2 mL; FMC BioPolyer, Philadelphia, Pa.) suspended in saline was injected into the pouch cavity. At either 3 hours or 24 hours post-carrageenan injection, rats were euthanized by CO2 asphyxiation and 2.5 mL of PBS (Sigma Chemical, St. Louis, Mo.) was injected directly into the pouch. The pouch was opened with surgical scissors and the pouch fluid was collected using a transfer pipette. One aliquot was collected for measurement of total cell count with differential, and the other aliquot for PGE2 determination. […]

SMILES | mean clinical score (scale 0 to 5) [1] | production of PGE2 (inflammatory and basal levels) [2]
CCCCCCCCc1ccc(CCC(N)(CO)CO)cc1 [fingolimod] | 0 | 
COc1ccc2cc([C@H](C)C(=O)O)ccc2c1 [naproxen] |  | inhibited production of both inflammatory and basal levels

From patent US10085955B2, “Methods and compositions for treatment of demyelinating diseases” (Pathologica LLC, priority 2013, dated 2018)
